Laboratory results taken from patent publication US20200239398A1, “METHYLENE-CYCLOALKYLACETATE DERIVATIVES AND THEIR USE IN TREATMENT OF NEUROTROPIC CONDITIONS” (Yissum Research Development Company of The Hebrew …, priority 2018, published 2020).
Read-outs that look alike come from different tables or passages of the source.

Columns and labels:
[1] = target: Muscarinic acetylcholine Receptor M3 (CHRM3) (Homo sapiens, UniProt P20309); test: cell-based; details: 10 μM HU-MCA-13, read-out: Maximal Response
[2] = tested on: dorsal root ganglion (DRG) sensory neurons; test: Neurite outgrowth in dorsal root ganglion (DRG) explants; assay type: cell-based, mice
Protocol: To perform these experiments, about 10 dorsal root ganglia (DRGs) were excised under sterile conditions and transferred to 0.25% Type IV collagenase (Sigma-Aldrich-Merck) in Dulbecco's Modified Eagle Medium (DMEM) at 37° C. for 45 min, followed by a 20-min incubation with 0.025% trypsin in DMEM, to digest the associated connective tissue surrounding the neurons. After plating the ganglia onto collagen (50 μg/ml)/laminin mixture (5 μg/ml)-coated tissue culture wells for 24 h, DRG neurons were cultured for additional 1-7 days in fresh Neurobasal A/B27 containing either 50 ng/ml NGF (positive control), blank medium (DMSO 1%) control and HU-MCA-13. The cultures were photographed; thereafter the ganglia were immune-stained for neuronal tubulin and again photographed using a fluorescent microscope. Image analysis was performed by a researcher blinded to the experimental conditions. Neurite outgrowth distance measured in micrometers, was quantified as for PC12 cultures.

[3] = target: Voltage-gated L-type calcium channel (CAV1.2) (Homo sapiens, UniProt Q13936); test: in vitro; parameters: dose or concentration left out as unconfirmed
[4] = target: T1, Monoamine oxidase type A (MAOA) (Homo sapiens, UniProt P21397); test: SAFETYscan MAOA Enzymatic; assay type: biochemical; details: Inhibitor mode; 10 μM HU-MCA-13; read-out: Maximal Response
T1 construct: DiscoverX (SAFETYscan contract panel)

[5] = target: T2, Insulin Receptor (tyrosine kinase) (INSR) (Homo sapiens, UniProt P06213); test: SAFETYscan INSR kinase Binding; details: Inhibitor mode, 10 μM HU-MCA-13, read-out: Maximal Response
T2 construct: DiscoverX (KINOMEscan)

[6] = target: T3, cAMP-specific 3′,5′-cyclic phosphodiesterase 4D2 (PDE4D2) (Homo sapiens, UniProt Q08499); test: SAFETYscan PDE4D2 Enzymatic; assay type: biochemical; details: Inhibitor mode; 10 μM HU-MCA-13; read-out: Maximal Response
T3 construct: DiscoverX (SAFETYscan contract panel)

[7] = Acute tolerance in mice, single iv dose; assay type: in vivo; details: C57BL/6, mouse, in vivo; male mice; predicted from the 250 mg/kg iv study; read-out: LD50 after single dose
Protocol: (§1) This pilot study was conducted to obtain acute information of the dose toxicity of HU-MCA-13 (Compound 13 in Scheme 1) in male mice. Male C57BL/6 mice, were injected intravenously with 0.2 ml of HU-MCA-13 in a dose of 250 mg/kg. Mice were monitored for 4 consecutive weeks for autonomic and neurotoxicity symptoms. The mortality and changes on body weight, clinical signs, gross observation, were monitored up to 30 days after treatment. No mortality was found at this high dose of 250 mg/kg. […] The mice were examined once a week for autonomic symptoms by measuring salivation, urinary delivery, pupillary constriction, heart rate, blood pressure, and hair contraction. […] Occurrences of either flaccid or spastic paralysis of the legs were not observed. […] Furthermore, no mice sudden deaths occurred within 24 hours after the injection or during the 4 weeks of observation. […] Sensory motor tests were scored individually and according to the modified neurologic function severity score (mNSS). The data from each individual test and the total score calculated from individual tests that make up the mNSS were measured. The following assays were used: a. beam balance test—mice were placed on a 1-inch wide beam for 60 seconds. A normal response is balance with steady posture for 60 seconds (a score of 0). Deficits are scored if the rat: grasps the side of the beam (a score of 1), hugs the beam and one limb falls down from the beam (a score of 2), hugs the beam and two limbs fall off the beam (a score of 3), attempts to balance on the beam, but falls off from 60 seconds (a score of 4), attempts to balance on the beam but falls off from […], or falls off with no attempt to balance or hang on the beam in <20 seconds (a score of 6); b. foot fault test—forelimb movement dysfunction, while walking on elevated metal grids, was monitored. The animal was placed on horizontal grids (85.5×26.5×20) cm with a glass enclosure for observation. With each weight bearing step, the forelimb can fall or slip between the metal support bars, an event recorded as a foot fault. The total number of forelimb steps and the total number of foot faults were recorded. The percentage of forelimb foot faults to the total steps that occurred within 2 minutes marks the test results; c. hind limb placing test—This test monitors reposition of hind limbs placed down and away from the table edge. The ability to retrieve and place the hind limbs back onto the table was scored. Immediate and complete limb retrieval was scored 0, delayed (>2 seconds) limb retrieval and/or interspersed flailing was scored 1, and no limb retrieval was scored 2; d. Increasing platform angle to slide test—This test monitors the strength and stability of resistance to slide down an inclined platform. It deploys a clean wooden board (60 cm by 40 cm) positioned horizontally. Mice were placed on the board with head facing up the increasing incline. The board then swings to increase the degree of inclination the rat experiences until slipping down the board feet first. The degree of the angle at which the rat relinquishes their grip/stance on the board (slips down) constitute the test results; e. the forelimb whole body suspension test—The test measures grip strength by duration of suspension by forepaws. The rat is suspended on a metal bar (diameter 5 mm) which it tightly holds onto by its forelimbs. The time (seconds) during which each rat could sustain its body weight while holding onto the bar is recorded. The mice drop from the bar onto soft material with no harm. The test was repeated three times and a mean result per rat was used as the score. Cumulatively these sensory motor/neurological findings indicate acute tolerability of 250 mg/kg HU-MCA-13 iv injection in Male C57BL/6 mice.

male C57BL/6 mice = test: Acute tolerance in mice, single iv dose; assay type: in vivo
Protocol: as §1

[8] = target: T4, 5-Hydroxytryptamine (Serotonin) Receptor 3A (HTR3A) (Homo sapiens, UniProt P46098); test: SAFETYscan HTR3A Ion channel; assay type: cell-based; details: 10 μM HU-MCA-13, read-out: Maximal Response
T4 construct: DiscoverX (SAFETYscan contract panel)

[9] = 250 mg/kg iv, same for 1% DMSO group

Chain of Muscarinic acetylcholine Receptor M3 (CHRM3) (P20309 whole entry): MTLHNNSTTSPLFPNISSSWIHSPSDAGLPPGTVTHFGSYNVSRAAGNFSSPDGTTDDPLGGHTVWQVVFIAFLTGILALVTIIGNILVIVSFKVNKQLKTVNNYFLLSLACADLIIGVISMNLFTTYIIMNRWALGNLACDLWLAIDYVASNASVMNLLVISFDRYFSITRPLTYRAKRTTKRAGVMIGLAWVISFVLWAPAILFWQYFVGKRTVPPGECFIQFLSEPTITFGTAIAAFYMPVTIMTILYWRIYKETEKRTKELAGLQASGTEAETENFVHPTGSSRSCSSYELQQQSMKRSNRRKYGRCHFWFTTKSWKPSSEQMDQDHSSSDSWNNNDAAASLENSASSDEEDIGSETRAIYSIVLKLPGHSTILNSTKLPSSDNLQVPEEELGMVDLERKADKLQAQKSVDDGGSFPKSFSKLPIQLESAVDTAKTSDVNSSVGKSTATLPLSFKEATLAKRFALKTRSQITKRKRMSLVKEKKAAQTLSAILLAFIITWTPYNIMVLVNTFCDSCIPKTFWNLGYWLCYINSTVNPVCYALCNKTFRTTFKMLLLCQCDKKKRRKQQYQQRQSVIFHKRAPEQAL
T4 sequence (P46098 24-478): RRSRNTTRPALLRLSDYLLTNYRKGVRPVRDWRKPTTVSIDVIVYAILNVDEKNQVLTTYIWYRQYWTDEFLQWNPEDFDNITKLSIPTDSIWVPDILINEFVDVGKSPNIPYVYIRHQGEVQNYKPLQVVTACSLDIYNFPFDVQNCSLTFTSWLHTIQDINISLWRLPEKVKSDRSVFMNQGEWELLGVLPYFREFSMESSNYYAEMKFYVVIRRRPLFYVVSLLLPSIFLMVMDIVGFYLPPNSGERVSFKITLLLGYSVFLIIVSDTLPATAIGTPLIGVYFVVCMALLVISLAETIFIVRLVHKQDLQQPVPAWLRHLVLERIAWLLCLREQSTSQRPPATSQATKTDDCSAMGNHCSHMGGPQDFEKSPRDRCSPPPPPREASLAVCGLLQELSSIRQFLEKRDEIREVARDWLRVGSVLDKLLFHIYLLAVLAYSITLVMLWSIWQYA
T1 sequence (P21397 whole entry): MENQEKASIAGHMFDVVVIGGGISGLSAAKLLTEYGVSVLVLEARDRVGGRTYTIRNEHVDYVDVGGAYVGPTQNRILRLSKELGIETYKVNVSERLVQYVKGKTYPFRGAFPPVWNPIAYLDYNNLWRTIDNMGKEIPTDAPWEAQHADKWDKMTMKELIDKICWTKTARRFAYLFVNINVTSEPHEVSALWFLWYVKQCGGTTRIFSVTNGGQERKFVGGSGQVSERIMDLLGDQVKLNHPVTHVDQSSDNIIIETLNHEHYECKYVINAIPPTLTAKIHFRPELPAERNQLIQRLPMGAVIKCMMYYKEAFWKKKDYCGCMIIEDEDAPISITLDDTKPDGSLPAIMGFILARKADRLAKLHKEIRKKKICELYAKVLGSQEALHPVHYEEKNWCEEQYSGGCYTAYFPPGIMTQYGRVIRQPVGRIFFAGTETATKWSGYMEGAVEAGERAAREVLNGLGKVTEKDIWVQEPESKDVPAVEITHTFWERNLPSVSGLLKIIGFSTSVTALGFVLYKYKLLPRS
T2 sequence (P06213 28-1382): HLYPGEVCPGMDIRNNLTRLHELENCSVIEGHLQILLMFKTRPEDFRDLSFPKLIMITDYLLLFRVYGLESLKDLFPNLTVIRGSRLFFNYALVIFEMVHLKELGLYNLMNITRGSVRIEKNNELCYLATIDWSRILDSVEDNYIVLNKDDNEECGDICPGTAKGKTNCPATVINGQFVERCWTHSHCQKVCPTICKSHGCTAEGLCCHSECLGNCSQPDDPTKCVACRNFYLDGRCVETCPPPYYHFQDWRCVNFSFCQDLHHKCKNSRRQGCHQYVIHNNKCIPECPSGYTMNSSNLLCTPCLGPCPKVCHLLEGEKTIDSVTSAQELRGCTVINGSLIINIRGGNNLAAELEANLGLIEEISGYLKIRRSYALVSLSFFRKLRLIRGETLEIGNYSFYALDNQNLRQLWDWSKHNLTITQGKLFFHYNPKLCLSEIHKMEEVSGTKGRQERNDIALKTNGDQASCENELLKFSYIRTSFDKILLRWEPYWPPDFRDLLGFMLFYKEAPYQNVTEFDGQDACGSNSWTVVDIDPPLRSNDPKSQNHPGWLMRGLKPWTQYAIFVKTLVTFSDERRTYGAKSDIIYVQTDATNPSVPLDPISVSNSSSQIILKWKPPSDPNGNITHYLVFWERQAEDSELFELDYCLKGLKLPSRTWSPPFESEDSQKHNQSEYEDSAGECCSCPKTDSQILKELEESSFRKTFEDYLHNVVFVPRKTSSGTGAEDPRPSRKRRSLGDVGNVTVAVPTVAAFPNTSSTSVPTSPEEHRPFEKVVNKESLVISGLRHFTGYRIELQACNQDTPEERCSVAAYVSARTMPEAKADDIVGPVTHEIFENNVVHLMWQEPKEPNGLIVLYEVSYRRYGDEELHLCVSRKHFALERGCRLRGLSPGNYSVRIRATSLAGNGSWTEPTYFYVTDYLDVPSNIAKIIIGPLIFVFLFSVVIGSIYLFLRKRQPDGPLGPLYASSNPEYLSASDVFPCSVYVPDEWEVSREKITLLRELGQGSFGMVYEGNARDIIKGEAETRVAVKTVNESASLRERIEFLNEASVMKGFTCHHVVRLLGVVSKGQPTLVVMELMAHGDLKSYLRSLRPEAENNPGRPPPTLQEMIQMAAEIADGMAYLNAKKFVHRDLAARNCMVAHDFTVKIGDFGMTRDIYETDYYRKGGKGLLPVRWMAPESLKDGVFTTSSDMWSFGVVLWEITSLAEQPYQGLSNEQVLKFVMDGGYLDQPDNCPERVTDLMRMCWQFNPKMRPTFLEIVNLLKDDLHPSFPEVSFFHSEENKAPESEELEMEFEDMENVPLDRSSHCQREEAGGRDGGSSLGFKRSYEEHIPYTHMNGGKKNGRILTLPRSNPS
T3 sequence (Q08499 303-809 limits assumed): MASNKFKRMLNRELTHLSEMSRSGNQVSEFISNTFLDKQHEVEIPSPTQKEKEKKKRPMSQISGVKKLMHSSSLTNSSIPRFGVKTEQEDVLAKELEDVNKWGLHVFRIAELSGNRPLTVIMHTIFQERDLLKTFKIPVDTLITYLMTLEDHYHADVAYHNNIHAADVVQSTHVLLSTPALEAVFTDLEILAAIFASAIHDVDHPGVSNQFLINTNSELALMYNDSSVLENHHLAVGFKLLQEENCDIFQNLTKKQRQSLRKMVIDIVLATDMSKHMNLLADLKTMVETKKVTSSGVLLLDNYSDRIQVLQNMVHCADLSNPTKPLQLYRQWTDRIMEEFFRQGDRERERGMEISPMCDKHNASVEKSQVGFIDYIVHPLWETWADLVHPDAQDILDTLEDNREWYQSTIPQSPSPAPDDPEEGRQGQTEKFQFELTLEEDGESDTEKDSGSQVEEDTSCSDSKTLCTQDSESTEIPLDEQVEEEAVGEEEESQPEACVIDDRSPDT

**Q.** With `C=CCC1CCC[C@@H](CCC(=O)O)C1=C` (stereo partly drawn) [Compound 13] as the compound, how does the Emax ([1]; Agonist mode) read?
**A.** 0.13%

**Q.** What about the Emax ([1]; Antagonist mode) of the same compound?
**A.** 8.81%

**Q.** And the “neurite outgrowth, neurotropic effect (in words)” value ([2]; HU-MCA-13 5 μM, 5 days)?
**A.** strong neurite outgrowth, neurotropic effect like NGF

**Q.** What about the “maturity of neurites (cytoskeletal-tubulin protein staining)” value ([2]; HU-MCA-13 compared with NGF-treated ganglia) of the same compound?
**A.** less mature than in NGF-treated ganglia

**Q.** What about the Emax [3] of the same compound?
**A.** 3.82%

**Q.** And the Emax [4]?
**A.** 1.86%

**Q.** What about the Emax [5] of the same compound?
**A.** 3.22%

**Q.** What about the Emax [6] of the same compound?
**A.** 0%

**Q.** And the LD50 at 30 days [7]?
**A.** > 2000 mg/kg

**Q.** And the “neurotoxicity signs (paralysis, motor activity, behavior)” value (male C57BL/6 mice; 250 mg/kg iv)?
**A.** No paralysis, altered motor activity, or irregular behavior was observed

**Q.** And the mortality (male C57BL/6 mice; 250 mg/kg iv single dose, up to 30 days)?
**A.** No mortality

**Q.** What about the “autonomic symptoms (salivation, urinary delivery, pupillary constriction, heart rate, blood pressure, hair contraction)” value (male C57BL/6 mice; 250 mg/kg iv vs 1% DMSO) of the same compound?
**A.** no differences were observed

**Q.** What about the “changes on body weight” value (male C57BL/6 mice; 250 mg/kg iv vs 1% DMSO treated group) of the same compound?
**A.** No significant changes

**Q.** And the “body weight at end” value (male C57BL/6 mice; [9])?
**A.** 27 gram

**Q.** And the “body weight at start” value (male C57BL/6 mice; [9])?
**A.** 21 gram

**Q.** And the “cutaneous hematomas around the injection site or at distant locations” value (male C57BL/6 mice; within 24 hours after injection, 250 mg/kg iv)?
**A.** have not been observed

**Q.** What about the Emax ([8]; Blocker mode) of the same compound?
**A.** 0.19%

**Q.** What about the Emax ([8]; Opener mode) of the same compound?
**A.** 0%
